Experiments:
[1] = system: subgenomic HCV replicon of genotype 1b (Con1), NS5A region; experiment: NS5A sequencing of HCV RNA, mutation frequency in SgPC2 Con1 replicon cells (Example 1); type: cell-based, Hepatitis C virus; details: for dn/ds ratio: control 0.33; for Percentage of sites showing positive selection: control 2.36; for mutation frequency, nucleotide changes per site / amino acid changes per codon: SgPC2 Con1 replicon cells, once daily for 48 hrs, ethanol 0.5%; for mutation frequency, nucleotide changes per site: normalized by T7 baseline
Procedure: Huh7 cell clones (SgPC2 cells) supporting continuous replication of a subgenomic HCV replicon of genotype 1b (Con1 sequence) were used (Choi J. et al. (2004) Hepatology 39:81-89; Blight K J et al. (2000) Science 290:1972). The subgenomic replicons support HCV RNA replication but no virus is formed. The in vitro transcription, transfection of HCV RNA, and Huh7 human hepatoma cell culture were performed by methods known in the art and as previously described (Choi J. et al. (2004) Hepatology 39:81-89; Blight K J et al. (2000) Science 290:1972).
After various treatments, total RNAs were collected using Trizol (Invitrogen). Then, the NS5A region (nt. 4612 to 6013 of Con1 replicon) was reverse transcribed/amplified with AccuScript High Fidelity RT-PCR System (Stratagene). The cDNAs were cloned into pUC19 and sequenced at the Joint Genome Institute (Livermore, Calif.). Sequences were aligned against Con1(S11791) sequence, using BioEdit/MEGA 4.0 Molecular Evolutionary Genetics Analysis software.
To test whether ethanol can increase the mutation rate of HCV, SgPC2 Con1 replicon cells that support genotype 1b subgenomic HCV RNA replication (FIG. 2B) were incubated with ethanol (0.5%), BSO (amplifies the effects of endogenous ROS/RNS by decreasing the level of glutathione in the cell), H2O2 (100 μM), or acetaldehyde (10 μM) once daily for 48 hrs. Then, the RNAs were collected, and the NS5A region (nt. 4612 to 6013 of Con1 replicon) was reverse transcribed/amplified with AccuScript High Fidelity RT-PCR System (Stratagene). Then, the cDNAs were cloned into pUC19 and sequenced at the Joint Genome Institute (Livermore, Calif.). T7 HCV RNA transcript, initially used to transfect the Con1 cells, was also sequenced to assess the basal level of RNA heterogeneity, such as due to any heterogeneity of the DNA template prior to in vitro transcription as well as any errors generated during transcription and RT-PCR cloning. The experiments were focused on NS5A because of its moderate level of diversity and its role in viral replication as well as interferon resistance. Sequences were aligned against Con1(S1179I) sequence, using BioEdit/MEGA 4.0 Molecular Evolutionary Genetics Analysis software.

Con1 replicon cells = experiment: 8-OHG oxidative RNA damage in SgPC2 Con1 replicon cells (ELISA); type: cell-based, human; details: for 8-OH-G in Con1 replicon (SgPC2) cells, daily treatment for 2 weeks: 0.1% ethanol, 5 μM acetaldehyde; for 8-OH-G in Con1 replicon (SgPC2) cells, daily treatment for 2 weeks / fold increase in 8-OHG content over the control: 20 μM BSO; for 8-OH-G in SgPC2 cells within 2 days: 0.5% ethanol, BSO; for fold increase in 8-OHG content over the control: 48 hrs, 0.5% (v/v) ethanol, 250 μM NiCl2 daily
Procedure: Total RNA was isolated using Trizol (Invitrogen) and analyzed for 8-OH-guanosine (8-OH-G) by northwestern, as described (Shan X et al. (2003) J. Neurosci. 23:4913-4921). Briefly, RNA was size-fractionated by agarose gel electrophoresis, transferred to a nylon membrane, blocked with 1% BSA, incubated sequentially with monoclonal anti-8-OH-G/dG antibodies (QED Bioscience, Inc.) and then with goat anti-mouse HRP-conjugated secondary antibody (Santa Cruz Biotechnology), and signals were detected, using an ECL kit (Amersham). In addition, RNA was digested with nuclease P1 (Sigma, US Biological) and alkaline phosphatase (Promega) and analyzed for 8-OH-G content using RNA Damage Kit (Cell Biolabs, Inc.), following manufacturer's protocols.
(§1) Total RNA was isolated using Trizol (Invitrogen) and analyzed for 8-OHG by ELISA. Briefly, RNA was incubated with 10 U DNase I (GE Healthcare), 10 U nuclease P1 (Sigma or US Biological), and 10 U alkaline phosphatase (Promega) and analyzed for 8-OHG content with RNA Damage Kit (Cell Biolabs, Inc.) and 8-OHG standards, following manufacturer's protocols.

[2] = system: Huh7 cells transfected with JFH1 RNA; experiment: 8-OHG oxidative RNA damage in Huh7 cells transfected with JFH1 RNA (ELISA); type: cell-based, human; details: 48 hr (0.5% ethanol, 20 μM BSO) and 2 weeks (0.1% ethanol, 20 μM BSO)
Procedure: as §1
HCV induces severe oxidative/nitrosative stress in the host by increasing the generation of reactive species. Thus, JFH1 strain of genotype 2a that supports complete replication cycle of HCV and produces infectious HCV in cell culture was used next to determine whether HCV was sufficient to induce oxidative RNA damage even in the absence of ethanol and BSO. Huh7 cells were transfected with JFH1 RNA and either exposed to 0.5% ethanol (v/v) or 20 μM BSO daily for 48 hrs, or to 0.1% ethanol (v/v) or 20 μM BSO with and without 5 μM dipyridyl or 1 mM GSH ester daily with a change of medium prior to each treatment for 2 weeks.

## CCCCS(=N)(=O)CCC(N)C(=O)O [BSO, L-buthionine-S,R-sulfoximine]
[1]; 48 hrs
  amino acid changes, fold higher than the control group: ~12 fold
  nucleotide changes, fold higher than the control group: about 4 fold
  dn/ds ratio: 0.59
  Percentage of sites showing positive selection: 6.42%
[1]
  mutation frequency, nucleotide changes per site: 6.74×10^−4 nucleotide changes per site
  amino acid changes per codon: 1.67×10^−3 amino acid changes per codon
Con1 replicon cells
  8-OH-G in Con1 replicon (SgPC2) cells, daily treatment for 2 weeks: significant increases
  8-OH-G in SgPC2 cells within 2 days: increased
  fold increase in 8-OHG content over the control: 23.4±1.5 fold
[2]
  8-OHG increased by HCV (JFH1): exacerbated

## CCO [Ethanol, ethanol]
[1]; 48 hrs
  amino acid changes, fold higher than the control group: ~24 fold
  nucleotide changes, fold higher than the control group: ~8 fold
  dn/ds ratio: 0.76
  Percentage of sites showing positive selection: 5.14%
[1]; 48 hrs, control approximately 2.7
  Ts/Tv ratio: 5.7
[1]; SNAP plot against codons, 48 hrs
  location of synonymous and nonsynonymous mutations in NS5A: clustered in the C-terminal half of NS5A
[1]
  mutation frequency, nucleotide changes per site: 1.33×10^−3 nucleotide changes per site
  amino acid changes per codon: 3.05×10^−3 amino acid changes per codon
Con1 replicon cells
  8-OH-G in Con1 replicon (SgPC2) cells, daily treatment for 2 weeks: significant increases
  8-OH-G in SgPC2 cells within 2 days: increased
  fold increase in 8-OHG content over the control: 34.9±1.2 fold
[2]
  8-OHG increased by HCV (JFH1): exacerbated
